Reference: US20090012103A1, “SUBSTITUTED HETEROCYCLIC COMPOUNDS” (priority 2007, published 2009)

The compounds below were run against wild-type human cardiac sodium channel, hNav1.5 (Homo sapiens, UniProt Q14524) (assay: Late INa screening assay (late sodium current, PatchXpress whole cell patch clamp)). Details: compound at 10 μM.
Assay type: cell-based
Procedure: The late sodium current (Late INa) and peak sodium current (Peak INa) assays are performed on an automated electrophysiology platform, PatchXpress 7000A (MDS Analytical Technologies, Sunnyvale, Calif.), which uses the whole cell patch clamp technique to measure currents through the cell membrane of up to 16 cells at a time. The assay uses an HEK293 (human embryonic kidney) cell line heterologously expressing the wild-type human cardiac sodium channel, hNav1.5, purchased from Millipore (Billerica, Mass.). No beta subunits were coexpressed with the Na channel alpha subunit. […] Experiments are carried out at 24-27° C.
For both the Late INa and Peak INa assays, series resistance compensation is set to 50% and whole-cell compensation is performed automatically. […] Currents through open sodium channels are automatically recorded and stored in the DataXpress2 database (MDS Analytical Technologies, Sunnyvale, Calif.). Analysis is performed using DataXpress2 analysis software and data are compiled in Excel.
Compound stocks are routinely made in glass vials to 10 mM in dimethyl sulfoxide (DMSO). In some cases, when compounds are not soluble in DMSO, they are made in 100% ethanol. Stocks are sonicated as necessary. The extracellular solution for screening Late INa is composed of: 140 mM NaCl, 4 mM KCl, 1.8 mM CaCl2, 0.75 mM MgCl2, and 5 mM HEPES with pH adjusted to 7.4 using NaOH. The extracellular solution for screening Peak INa is composed of: 20 mM NaCl, 120 mM N-methyl-D glucamine, 4 mM KCl, 1.8 mM CaCl2, 0.75 mM MgCl2, and 5 mM HEPES with pH adjusted to 7.4 using HCl. The intracellular solution used to perfuse the inside of the cells for both the Late INa and Peak INa assays contains: 120 mM CsF, 20 mM CsCl, 5 mM EGTA, 5 mM HEPES and pH adjusted to 7.4 with CsOH. Compounds are diluted in extracellular solution to 10 μM in glass vials and then transferred to glass well plates before robotic addition to the cells. The 0 Na extracellular solution used at the end of each experiment for the Late INa and Peak INa assays to measure baseline current contains: 140 mM N-methyl-D-glucamine; 4 mM KCl; 1.8 mM CaCl2; 0.75 mM MgCl2; 5 mM HEPES and pH was adjusted to 7.4 with HCl.
For the Late INa assay, sodium channels are activated every 10 seconds (0.1 Hz) by depolarizing the cell membrane to −20 mV for 250 milliseconds (ms) from a holding potential of −120 mV.
All compounds are tested to determine their activity in blocking the late sodium current. Late INa current is generated by adding 10 μM Tefluthrin (pyrethroid) to the extracellular solution while recording Na currents. […] For some experiments, 50 nM ATX II (sea anemone toxin), another late INa activator, was used to generate the late component. […] Baseline current in the absence of Na^+ ions is measured at the end of each experiment (after two additions of 0 Na solution-see above) and is used to calculate the percent block by compound.

Sequence of wild-type human cardiac sodium channel, hNav1.5 (Q14524 whole entry): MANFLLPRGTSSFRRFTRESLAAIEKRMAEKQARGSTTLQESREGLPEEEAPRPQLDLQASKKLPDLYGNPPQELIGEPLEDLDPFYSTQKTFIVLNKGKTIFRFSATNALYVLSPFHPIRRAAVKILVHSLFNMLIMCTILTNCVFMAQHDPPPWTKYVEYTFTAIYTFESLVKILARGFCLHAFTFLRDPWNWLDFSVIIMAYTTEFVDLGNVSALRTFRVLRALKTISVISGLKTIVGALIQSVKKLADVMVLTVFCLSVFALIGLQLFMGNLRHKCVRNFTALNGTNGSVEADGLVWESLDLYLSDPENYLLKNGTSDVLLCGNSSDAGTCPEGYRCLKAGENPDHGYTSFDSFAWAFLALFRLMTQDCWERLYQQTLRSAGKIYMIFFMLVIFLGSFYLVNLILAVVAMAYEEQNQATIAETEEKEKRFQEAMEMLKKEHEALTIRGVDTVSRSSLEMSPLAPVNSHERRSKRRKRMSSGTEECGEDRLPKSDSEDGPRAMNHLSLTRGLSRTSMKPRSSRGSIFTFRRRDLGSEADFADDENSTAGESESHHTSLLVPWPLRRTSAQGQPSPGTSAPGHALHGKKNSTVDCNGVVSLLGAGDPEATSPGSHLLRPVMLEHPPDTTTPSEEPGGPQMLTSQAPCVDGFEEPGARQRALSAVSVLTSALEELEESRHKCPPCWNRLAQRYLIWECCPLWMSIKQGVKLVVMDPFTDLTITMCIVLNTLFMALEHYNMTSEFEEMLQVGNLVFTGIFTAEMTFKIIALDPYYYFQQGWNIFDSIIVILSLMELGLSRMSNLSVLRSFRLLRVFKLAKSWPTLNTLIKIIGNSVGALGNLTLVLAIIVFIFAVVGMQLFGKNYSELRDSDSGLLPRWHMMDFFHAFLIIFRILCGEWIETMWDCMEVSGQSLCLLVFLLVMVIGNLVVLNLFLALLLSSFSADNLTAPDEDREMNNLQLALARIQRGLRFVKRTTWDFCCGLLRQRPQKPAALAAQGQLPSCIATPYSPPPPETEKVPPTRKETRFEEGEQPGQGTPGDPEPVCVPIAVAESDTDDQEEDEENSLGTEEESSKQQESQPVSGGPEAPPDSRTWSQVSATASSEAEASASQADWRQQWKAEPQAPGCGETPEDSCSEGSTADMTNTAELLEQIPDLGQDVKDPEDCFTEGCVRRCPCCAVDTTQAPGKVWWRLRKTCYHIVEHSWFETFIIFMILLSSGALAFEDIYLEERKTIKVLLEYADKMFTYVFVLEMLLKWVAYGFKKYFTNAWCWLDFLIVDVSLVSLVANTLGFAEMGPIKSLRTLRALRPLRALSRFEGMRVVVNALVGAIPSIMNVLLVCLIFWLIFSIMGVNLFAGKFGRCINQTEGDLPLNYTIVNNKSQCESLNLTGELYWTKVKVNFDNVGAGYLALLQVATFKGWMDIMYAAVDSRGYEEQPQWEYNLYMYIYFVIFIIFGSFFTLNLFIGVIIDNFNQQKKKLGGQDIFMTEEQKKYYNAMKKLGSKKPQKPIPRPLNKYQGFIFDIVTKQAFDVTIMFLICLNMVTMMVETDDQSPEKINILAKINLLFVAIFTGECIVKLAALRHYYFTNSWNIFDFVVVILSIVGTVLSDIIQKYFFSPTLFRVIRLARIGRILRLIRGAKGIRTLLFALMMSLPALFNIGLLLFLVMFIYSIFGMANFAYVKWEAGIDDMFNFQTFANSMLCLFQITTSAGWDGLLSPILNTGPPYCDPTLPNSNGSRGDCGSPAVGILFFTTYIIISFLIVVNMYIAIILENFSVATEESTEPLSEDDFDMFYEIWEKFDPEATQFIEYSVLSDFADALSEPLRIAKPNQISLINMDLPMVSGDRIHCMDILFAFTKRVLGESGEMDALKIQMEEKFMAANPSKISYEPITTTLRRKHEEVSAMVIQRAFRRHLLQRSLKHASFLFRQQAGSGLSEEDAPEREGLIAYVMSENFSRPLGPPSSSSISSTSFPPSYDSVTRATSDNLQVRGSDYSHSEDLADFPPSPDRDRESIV

With `CC1=C(C(=O)OC(C)C)C(c2c[nH]nc2-c2ccc(F)cc2)C(C(=O)OC(C)C)=C(C)N1` [PT-128, diisopropyl 4-(3-(4-fluorophenyl)-1H-pyrazol-4-yl)-2,6-dimethyl-1,4-dihydropyridine-3,5-dicarboxylate] the “Late INa % blk” value was 34.1%.

Same assay, conditions: compound at 10 μM; read-out: Late INa % blk

In order of falling inhibition at 10 µM:
1. CC1=C(C(=O)OCc2cccc(C#N)c2)C(c2cccc3ccccc23)n2nnnc2N1 (centres unmarked) [PT-278, 3-cyanobenzyl 5-methyl-7-(naphthalen-1-yl)-4,7-dihydrotetrazolo[1,5-a]pyrimidine-6-carboxylate]  63.9%
2. CCOC(=O)C1=C(C)Nc2nnnn2C1c1ccccc1-c1cccs1 (centres unmarked) [PT-462, ethyl 5-methyl-7-(2-(thiophen-2-yl)phenyl)-4,7-dihydrotetrazolo[1,5-a]pyrimidine-6-carboxylate]  63%
3. CCOC(=O)C1=C(C)NC(C)=C(C(=O)OCC)C1c1ccc(OC)cc1F [PT-432, diethyl 4-(2-fluoro-4-methoxyphenyl)-2,6-dimethyl-1,4-dihydropyridine-3,5-dicarboxylate]  56.9%
4. CC1=C(C(=O)OCc2ccccc2)[C@@H](c2ccccc2-c2cccc(C(N)=O)c2)n2nnnc2N1 [PT-238, (R)-benzyl 7-(3′-carbamoylbiphenyl-2-yl)-5-methyl-4,7-dihydrotetrazolo[1,5-a]pyrimidine-6-carboxylate]  49.9%
5. CC1=C(C(=O)OCc2ccccc2)C(c2ccccc2)c2ccccc2N1 (centres unmarked) [PT-321, benzyl 2-methyl-4-phenyl-1,4-dihydroquinoline-3-carboxylate]  48.3%
6. CC1=C(C(=O)OC(C)C)C(c2cc(-c3ccccc3)cs2)C2=C(CC(C)(C)CC2=O)N1 (centres unmarked) [PT-159, isopropyl 2,7,7-trimethyl-5-oxo-4-(4-phenylthiophen-2-yl)-1,4,5,6,7,8-hexahydroquinoline-3-carboxylate]  46.3%
7. CCOC(=O)C1=C(C)Nc2ccnn2C1c1cccc(Oc2ccccc2)c1 (centres unmarked) [PT-463, ethyl 5-methyl-7-(3-phenoxyphenyl)-4,7-dihydropyrazolo[1,5-a]pyrimidine-6-carboxylate]  42.3%
8. CCOC(=O)C1=C(C(C)C)Nc2nnnn2C1c1ccc2ccccc2c1 (centres unmarked) [PT-012, ethyl 5-isopropyl-7-(naphthalen-2-yl)-4,7-dihydrotetrazolo[1,5-a]pyrimidine-6-carboxylate]  40.1%
9. CCCC1=C(C(=O)OCC)C(c2ccsc2)C2=C(CC(C)(C)CC2=O)N1 (centres unmarked) [PT-151, ethyl 7,7-dimethyl-5-oxo-2-propyl-4-(thiophen-3-yl)-1,4,5,6,7,8-hexahydroquinoline-3-carboxylate]  35%
10. CCOC(=O)C1=C(C)NC2=C(C(=O)CCC2)C1c1ccc(OC)c2ccc(OC)cc12 (centres unmarked) [PT-138, ethyl 4-(4,7-dimethoxynaphthalen-1-yl)-2-methyl-5-oxo-1,4,5,6,7,8-hexahydroquinoline-3-carboxylate]  34.1%
11. CC1=C(C(=O)OC(C)(C)C)C(c2ccc3ccccc3c2)n2nnnc2N1 (centres unmarked) [PT-022, tert-butyl 5-methyl-7-(naphthalen-2-yl)-4,7-dihydrotetrazolo[1,5-a]pyrimidine-6-carboxylate]  26%
12. CC1=C(C(=O)NCCc2ccccc2)C(c2cccc3ccccc23)n2nnnc2N1 (centres unmarked) [PT-310, 5-methyl-7-(naphthalen-1-yl)-N-phenethyl-4,7-dihydrotetrazolo[1,5-a]pyrimidine-6-carboxamide]  23.6%
13. CC1=C(C(=O)N2CCC(c3ccccc3)CC2)C(c2cccc3ccccc23)n2nnnc2N1 (centres unmarked) [PT-066, (5-methyl-7-(naphthalen-1-yl)-4,7-dihydrotetrazolo[1,5-a]pyrimidin-6-yl)(4-phenylpiperidin-1-yl)methanone]  22.2%
14. CC1=C(C(=O)OCc2ccccc2)C(c2ccc(SC(F)(F)F)cc2)n2nnnc2N1 (centres unmarked) [PT-359, benzyl 5-methyl-7-(4-(trifluoromethylthio)phenyl)-4,7-dihydrotetrazolo[1,5-a]pyrimidine-6-carboxylate]  21.3%
15. COc1ccc(-c2ccc(COC(=O)C3=C(C)Nc4nnnn4C3c3cccc4ccccc34)cc2)cc1 (centres unmarked) [PT-199, (4′-methoxybiphenyl-4-yl)methyl 5-methyl-7-(naphthalen-1-yl)-4,7-dihydrotetrazolo[1,5-a]pyrimidine-6-carboxylate]  20.3%
16. CC1=C(C(=O)OCc2ccccc2)C(c2ccc(OC(F)(F)F)cc2)n2nnnc2N1 (centres unmarked) [PT-357, benzyl 5-methyl-7-(4-(trifluoromethoxy)phenyl)-4,7-dihydrotetrazolo[1,5-a]pyrimidine-6-carboxylate]  19.6%
17. CCOC(=O)C1=C(C)Nc2nnnn2C1c1ccccc1Oc1ccc(S(N)(=O)=O)cc1 (centres unmarked) [PT-458, ethyl 5-methyl-7-(2-(4-sulfamoylphenoxy)phenyl)-4,7-dihydrotetrazolo[1,5-a]pyrimidine-6-carboxylate]  19%
18. CCOC(=O)C1=C(C)Nc2[nH]ncc2C1c1ccccc1-c1cccc(C(C)=O)c1 (centres unmarked) [PT-451, ethyl 4-(3′-acetylbiphenyl-2-yl)-6-methyl-4,7-dihydro-1H-pyrazolo[3,4-b]pyridine-5-carboxylate]  18.4%
19. CC1=C(C(=O)OCc2ccccc2)C(c2ccc(OCCN(C)C)cc2)n2nnnc2N1 (centres unmarked) [PT-405, benzyl 7-(4-(2-(dimethylamino)ethoxy)phenyl)-5-methyl-4,7-dihydrotetrazolo[1,5-a]pyrimidine-6-carboxylate]  18.4%
20. COC(=O)c1ccc(OCCOC(=O)C2=C(C)Nc3nnnn3C2c2cccc3ccccc23)cc1 (centres unmarked) [PT-251, 2-(4-(methoxycarbonyl)phenoxy)ethyl 5-methyl-7-(naphthalen-1-yl)-4,7-dihydrotetrazolo[1,5-a]pyrimidine-6-carboxylate]  11.5%
21. CCOC(=O)C1=C(C)Nc2[nH]ncc2C1c1cccs1 (centres unmarked) [PT-473, ethyl 6-methyl-4-(thiophen-2-yl)-4,7-dihydro-1H-pyrazolo[3,4-b]pyridine-5-carboxylate]  9.4%
22. CC1=C(C(=O)OCc2ccc(OC(F)(F)F)cc2)C(c2cccc3ccccc23)n2nnnc2N1 (centres unmarked) [PT-052, 4-(trifluoromethoxy)benzyl 5-methyl-7-(naphthalen-1-yl)-4,7-dihydrotetrazolo[1,5-a]pyrimidine-6-carboxylate]  9.1%
23. CCOC(=O)c1ccc(N2CCN(C(=O)C3=C(C)NC4=C(C(=O)CCC4)C3c3cccc4ccccc34)CC2)cc1 (centres unmarked) [PT-452, ethyl 4-(4-(2-methyl-4-(naphthalen-1-yl)-5-oxo-1,4,5,6,7,8-hexahydroquinoline-3-carbonyl)piperazin-1-yl)benzoate]  5.9%
24. CCOC(=O)C1=C(C)N(CC#N)c2nnnn2C1c1cccc2ccccc12 (centres unmarked) [PT-456, ethyl 4-(cyanomethyl)-5-methyl-7-(naphthalen-1-yl)-4,7-dihydrotetrazolo[1,5-a]pyrimidine-6-carboxylate]  2.7%
25. CCOC(=O)C1=C(C)Nc2nnnn2C1c1ccc(N(C)C)cc1[N+](=O)[O-] (centres unmarked) [PT-501, ethyl 7-(4-(dimethylamino)-2-nitrophenyl)-5-methyl-4,7-dihydrotetrazolo[1,5-a]pyrimidine-6-carboxylate]  2.5%
26. CCOC(=O)C1=C(C)NC(C)=C(C(=O)OCC)C1c1ccc(C(=O)O)s1 [PT-112, 5-(3,5-bis(ethoxycarbonyl)-2,6-dimethyl-1,4-dihydropyridin-4-yl)thiophene-2-carboxylic acid]  -24.9%
27. CC1=C(C(=O)OC(C)C)C(c2ccc(-c3ccc(Cl)cc3)o2)C(C(=O)OC(C)C)=C(C)N1 [PT-126, diisopropyl 4-(5-(4-chlorophenyl)furan-2-yl)-2,6-dimethyl-1,4-dihydropyridine-3,5-dicarboxylate]  -39%

Same assay, conditions: result in words

With `CC1=C(C(=O)N2CCN(c3ccccc3)CC2)C(c2ccsc2)C2=C(CCCC2=O)N1` (centres unmarked) [PT-166, 2-methyl-3-(4-phenylpiperazine-1-carbonyl)-4-(thiophen-3-yl)-4,6,7,8-tetrahydroquinolin-5(1H)-one] the “effect on late sodium current” value was “potentiated late sodium current”.
